Measurements taken from US6713265B1 (Synaptic Pharmaceutical Corporation, priority 1999, dated 2004).

How the values were obtained:
D3 = target: T1, D3 (Homo sapiens, UniProt P35462); assay: Binding at cloned human dopamine D3 receptor
T1 construct: expressed in transfected cells; host or cells: COS-7

[1] = tested on: NPY-induced feeding behavior; assay: NPY-induced food intake in satiated rats; type: in vivo, rat; settings: compound 30 mg/kg i.p. then 300 pmole NPY i.c.v., 4 hours, mean ± S.E.M.
Experimental: For these determinations food intake may be measured in normal satiated rats after intracerebroventricular application (i.c.v.) of NPY in the presence or absence of the test compound. Male Sprague Dawley rats (Ciba-Geigy AG, Sisseln, Switzerland) weighing between 180 g and 220 g are used for all experiments. The rats are individually housed in stainless steel cages and maintained on an 11:13 h light-dark cycle (lights off at 18:00 h) at a controlled temperature of 21-23° C. at all times. Water and food (NAFAG lab chow pellets NAFAG, Gossau, Switzerland) are available ad libidum.
Rats under pentobarbital anesthesia are stereotaxically implanted with a stainless steel guide cannula targeted at the right lateral ventricle. Stereotaxic coordinates, with the incisor bar set −2.0 mm below interaural line, are: −0.8 mm anterior and +1.3 mm lateral to bregma. The guide cannula is placed on the dura. Injection cannulas extend the guide cannulas −3.8 mm ventrally to the skull surface. Animals are allowed at least 4 days of recovery postoperatively before being used in the experiments. Cannula placement is checked postoperatively by testing all rats for their drinking response to a 50. ng intracerebroventricular (i.c.v.) injection of angiotensin II. Only rats which drink at least 2.5 ml of water within 30 min. after angiotensin II injection are used in the feeding studies.
All injections are made in the morning 2 hours after light onset. Peptides are injected in artificial cerebrospinal fluid (ACSF) in a volume of 5 μl. ACSF contains: NaCl 124 mM, KCl 3.75 mM, CaCl2 2.5 mM, MgSO4 2.0 mM, KH2PO4 0.22 mM, NaHCO3 26 mM and glucose 10 mM. Porcine-NPY (p-NPY) are dissolved in artificial cerebrospinal fluid (ACS). For i.c.v. injection the test compounds are preferably dissolved in DMSO/water (10%, v/v). The vehicle used for intraperitoneal (i.p.), subcutaneous (s.c.) or oral (p.o.) delivery of compounds is preferably water, physiological saline or DMSO/water (10% v/v), or cremophor/water (20% v/v), respectively.
Animals which are treated with both test compounds and porcine-NPY are treated first with the test compound.
Food intake may be measured by placing preweighed pellets into the cages at the time of NPY injection. Pellets are then removed from the cage subsequently at each selected time point and replaced with a new set of preweighed pellets. The food intake of animals treated with test compound may be calculated as a percentage of the food intake of control animals i.e., animals treated with vehicle. Alternatively, food intake for each group of animals subjected to a particular experimental condition may be expressed as the mean±S.E.M. Statistical analysis is performed by analysis of variance using the Student-Newman-Keuls test.
Food intake is reported as the mean±S.E.M. intake for a group of animals.

5HT1a = 5HT1a (Homo sapiens, UniProt P08908); assay: Binding at cloned human 5HT1a receptor
Chain of 5HT1a (P08908 whole entry): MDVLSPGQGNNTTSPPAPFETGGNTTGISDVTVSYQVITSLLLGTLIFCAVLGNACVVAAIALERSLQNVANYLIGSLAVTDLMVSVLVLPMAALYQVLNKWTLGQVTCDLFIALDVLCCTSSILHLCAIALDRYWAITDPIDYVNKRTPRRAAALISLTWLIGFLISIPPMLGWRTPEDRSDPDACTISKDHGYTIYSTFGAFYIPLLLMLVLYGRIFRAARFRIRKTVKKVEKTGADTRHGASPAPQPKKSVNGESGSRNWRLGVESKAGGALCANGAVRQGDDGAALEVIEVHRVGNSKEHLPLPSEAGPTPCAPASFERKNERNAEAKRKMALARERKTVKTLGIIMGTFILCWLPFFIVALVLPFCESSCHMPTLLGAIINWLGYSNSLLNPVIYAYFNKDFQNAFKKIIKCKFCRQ

T1 sequence (P35462 whole entry): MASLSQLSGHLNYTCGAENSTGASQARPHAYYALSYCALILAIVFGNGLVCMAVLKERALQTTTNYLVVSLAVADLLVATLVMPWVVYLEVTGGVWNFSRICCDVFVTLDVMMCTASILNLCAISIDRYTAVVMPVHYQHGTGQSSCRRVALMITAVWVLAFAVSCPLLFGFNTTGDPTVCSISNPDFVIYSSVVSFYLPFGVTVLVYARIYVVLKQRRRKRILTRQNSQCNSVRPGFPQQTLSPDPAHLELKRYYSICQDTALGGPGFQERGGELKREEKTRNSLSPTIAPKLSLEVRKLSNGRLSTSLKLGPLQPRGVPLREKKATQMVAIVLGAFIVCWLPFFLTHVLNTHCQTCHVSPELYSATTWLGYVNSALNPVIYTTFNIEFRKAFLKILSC

| Compound | pKi D3 (D3) | Food intake, NPY + compound [1] | pKi 5HT1a (5HT1a) |
| --- | --- | --- | --- |
| Cl.O=S(=O)(NC[C@H]1CC[C@H](CNCC2CCc3ccccc3C2)CC1)c1cccc2ccccc12 (mixture of isomers) [Compound 19] | 6.69 | 1.5 ± 0.6 g | 5.54 |
| Cl.O=[N+]([O-])c1ccccc1S(=O)(=O)NC[C@H]1CC[C@H](CNCC2CCc3ccccc3C2)CC1 (mixture of isomers) [Compound 20] | 6.35 | – | – |
| Cl.Cl.Nc1ccccc1S(=O)(=O)NC[C@H]1CC[C@H](CNCC2CCc3ccccc3C2)CC1 (mixture of isomers) [Compound 22] | – | – | 6.56 |
